Data published in patent publication EP2236511A2, “LIGANDS OF ALPHA-ADRENOCEPTORS AND OF DOPAMINE, HISTAMINE, IMIDAZOLINE AND SEROTONIN RECEPTORS AND THE USE THEREOF” (priority 2007, dated 2009).

What was measured:
[1] = target: T1, human D4.2 receptor (Homo sapiens, UniProt P21917, DEL265-296); test: Radioligand binding to dopamine receptor D4.2 ([3H] Spiperone, CHO-K1 membranes); conditions: read-out: Dopamine receptors, % inhibition D4.2
T1 construct: expressed in transfected cells; host or cells: CHO-K1
T1 sequence (P21917 with tags, fused parts or gaps DEL265-296): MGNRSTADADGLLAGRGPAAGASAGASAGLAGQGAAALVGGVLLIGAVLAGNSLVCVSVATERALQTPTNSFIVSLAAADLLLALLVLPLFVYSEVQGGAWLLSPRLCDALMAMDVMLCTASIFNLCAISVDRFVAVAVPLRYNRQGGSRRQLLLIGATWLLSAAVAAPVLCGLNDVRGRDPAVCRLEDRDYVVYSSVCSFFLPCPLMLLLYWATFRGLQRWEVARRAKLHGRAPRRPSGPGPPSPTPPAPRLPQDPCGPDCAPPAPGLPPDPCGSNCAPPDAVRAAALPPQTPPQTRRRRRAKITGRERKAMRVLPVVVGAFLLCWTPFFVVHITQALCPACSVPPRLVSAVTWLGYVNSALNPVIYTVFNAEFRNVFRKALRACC
Protocol: Screening of the disclosed compounds for potential ability to interact with dopamine receptor D4.2 is carried out by method of radioligand binding. […] From the cells transfected in this way membrane species are prepared by homogenization of these cells in glass homogenizer with the subsequent separation of plasmatic membranes from cell nuclei, mitochondrias and cell wreckages by differential centrifugation. […] After incubation samples are filtered in vacuo on glass-microfiber filters G/F (Millipor, USA), filters are washed three times with cold solution of medium and radioactivity is measured by scintillation counter MicroBeta 340 (Perkin Elmer, USA). Nonspecific binding which makes up 10% of the overall binding is determined by incubation of membrane species with radioligand in the presence of 10 µM of Haloperidol.
Spiperone is used as positive control. Tested compounds' binding to the receptor is determined by their ability to displace radioligand and expressed in percent of displacement (%I). Values of %I are calculated according to the following equation: %I = (TA-CA)/(TA-NA)*100, [formula] wherein: TA - is overall radioactivity in the presence of radioligand only, CA - is radioactivity in the presence of radioligand and tested compound and NA - is radioactivity in the presence of radioligand and Haloperidol (10 µM).

[2] = tested on: imidazoline receptor I2; test: Radioligand binding to imidazoline receptor I2 ([3H] Idazoxan, rat brain membranes); conditions: 10 µM ligand
Protocol: For this purpose membrane species are prepared from rat (Wistar) brain homogenates by homogenization of them in glass homogenizer with the subsequent separation of plasmatic membranes from cell nuclei, mitochondrias and cell wreckages by differential centrifugation. […] After incubation the samples are filtered in vacuo on glass-microfiber filters G/F (Millipor, USA), filters are washed three times with cold solution of medium and radioactivity is measured by scintillation counter MicroBeta 340 (Perkin Elmer, USA). […] Idazoxan is used as positive control.
The tested compounds' binding to the receptor is determined by their ability to displace the radioligand and expressed in percent of displacement (%I). Values of %I are calculated according to the following equation: %I = (TA-CA)/(TA-NA)*100, [formula] wherein: TA - is the overall radioactivity in the presence of radioligand only, CA - is the radioactivity in the presence of radioligand and tested compound and NA - is a radioactivity in the presence of radioligand and Idazoxan (1 µM).

[3] = target: T2, serotonin receptor 5-HT1B (Rattus norvegicus, UniProt P28564); test: Radioligand binding to serotonin receptor 5-HT1B ([125I] cyanopindolol, rat brain cortex membranes)
T2 construct: membrane species are prepared from rat brains (Wistar) by homogenization of species of rat brain-cortices; from tissue; host or cells: rat (Wistar) brain cortex
T2 sequence (P28564 whole entry): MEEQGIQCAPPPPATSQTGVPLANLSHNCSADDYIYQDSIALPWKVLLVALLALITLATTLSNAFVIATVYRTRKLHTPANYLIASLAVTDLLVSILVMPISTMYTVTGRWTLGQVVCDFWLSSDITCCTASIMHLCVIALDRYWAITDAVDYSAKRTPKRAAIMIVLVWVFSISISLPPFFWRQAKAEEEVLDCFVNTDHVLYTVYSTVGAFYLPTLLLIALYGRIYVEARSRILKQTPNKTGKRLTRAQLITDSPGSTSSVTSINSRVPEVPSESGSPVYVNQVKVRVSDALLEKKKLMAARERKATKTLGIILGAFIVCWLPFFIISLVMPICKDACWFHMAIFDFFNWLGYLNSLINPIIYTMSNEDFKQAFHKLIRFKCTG
From the text: Serotonin is used as positive control.

[4] = tested on: male mice of BALB/c line; test: Passive Avoidance of mice in the Shuttle Chamber, memory disturbed by Scopolamine; format: in vivo; conditions: Scopolamine 0.3 mg/kg, injected 30 minutes before training; figures 1-3
Protocol: Example 14. […] A shuttle chamber (Ugo Basile, Italy) consisted of two sections was used. […] The sections were connected through a hole which could be overlapped by a vertical door. The floor was made of transverse metal bars on which DC current impulses could be fed. Experiments were carried out in aged male mice of BALB/c line weighing 20-24 grams.
Each group consisted of at least 8 animals. Animal was placed in light section, and latent period of the first entry into dark chamber was registered. Then the vertical door was closed and the animal was punished by 0.6 mA DC current for 3 seconds. After that it was taken back to its homecage. In 22-24 hours the same animal was placed again in light section of the shuttle chamber and latent period of its first entry into dark section, the total time of its stay in light section, and the number of entries into dark section, were registered. Each monitoring lasted for 5 minutes.
Testing was carried out during the day time in isolated laboratory using white noise at level of about 70 decibel above human hearing threshold.
Scopolamine causes the disturbance of training (memory loss) that results in […].

[5] = target: T3, recombinant human 5-HT2C receptor (Homo sapiens, UniProt P28335); test: Radioligand binding to serotonin receptor 5-HT2C ([3H] Mesulergine, CHO-K1 membranes); conditions: 10 µM ligand
T3 construct: expressed in transfected cells; host or cells: CHO-K1
T3 sequence (P28335 33-458): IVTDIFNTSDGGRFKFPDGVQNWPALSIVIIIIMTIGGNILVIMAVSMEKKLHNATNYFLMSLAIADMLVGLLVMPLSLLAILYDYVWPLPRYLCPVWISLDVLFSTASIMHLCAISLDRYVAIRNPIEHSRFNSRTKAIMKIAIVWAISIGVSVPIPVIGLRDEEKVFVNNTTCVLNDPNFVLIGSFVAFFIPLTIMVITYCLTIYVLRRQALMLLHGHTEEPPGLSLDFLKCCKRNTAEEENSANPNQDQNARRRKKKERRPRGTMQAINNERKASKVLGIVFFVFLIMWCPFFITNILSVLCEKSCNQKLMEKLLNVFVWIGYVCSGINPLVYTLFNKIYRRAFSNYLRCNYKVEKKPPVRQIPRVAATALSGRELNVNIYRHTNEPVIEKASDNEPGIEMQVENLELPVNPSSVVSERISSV
From the text: J Neurochem. 69: 1449 - 1458, 1997]. […] SB242084 is used as positive control.

[6] = target: T4, recombinant human 5-HT2A receptor (Homo sapiens, UniProt P28223); test: Radioligand binding to serotonin receptor 5-HT2A ([3H] Ketanserin, CHO-K1 membranes); conditions: 10 µM ligand
T4 construct: expressed in transfected cells; host or cells: CHO-K1
T4 sequence (P28223 whole entry): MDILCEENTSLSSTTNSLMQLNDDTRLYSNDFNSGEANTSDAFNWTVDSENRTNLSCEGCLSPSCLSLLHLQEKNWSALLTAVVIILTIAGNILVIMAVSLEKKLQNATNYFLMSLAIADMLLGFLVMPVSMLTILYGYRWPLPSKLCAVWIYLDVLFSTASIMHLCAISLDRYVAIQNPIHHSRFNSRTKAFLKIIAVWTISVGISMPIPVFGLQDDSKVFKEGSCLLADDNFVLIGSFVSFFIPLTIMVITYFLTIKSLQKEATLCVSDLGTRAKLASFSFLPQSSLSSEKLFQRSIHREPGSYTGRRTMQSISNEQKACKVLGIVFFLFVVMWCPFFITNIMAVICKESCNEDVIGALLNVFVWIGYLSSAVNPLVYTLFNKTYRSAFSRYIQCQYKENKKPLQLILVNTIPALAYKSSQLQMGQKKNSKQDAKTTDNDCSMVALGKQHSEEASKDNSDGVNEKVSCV
From the text: 9-C. […] J Neurochem. […] Ketanserin is used as positive control.

[7] = target: T5, recombinant human 5-HT2B receptor (Homo sapiens, UniProt P41595); test: Radioligand binding to serotonin receptor 5-HT2B ([3H] Lysergic acid diethylamide, CHO-K1 membranes)
T5 construct: expressed in transfected cells; host or cells: CHO-K1
T5 sequence (P41595 whole entry): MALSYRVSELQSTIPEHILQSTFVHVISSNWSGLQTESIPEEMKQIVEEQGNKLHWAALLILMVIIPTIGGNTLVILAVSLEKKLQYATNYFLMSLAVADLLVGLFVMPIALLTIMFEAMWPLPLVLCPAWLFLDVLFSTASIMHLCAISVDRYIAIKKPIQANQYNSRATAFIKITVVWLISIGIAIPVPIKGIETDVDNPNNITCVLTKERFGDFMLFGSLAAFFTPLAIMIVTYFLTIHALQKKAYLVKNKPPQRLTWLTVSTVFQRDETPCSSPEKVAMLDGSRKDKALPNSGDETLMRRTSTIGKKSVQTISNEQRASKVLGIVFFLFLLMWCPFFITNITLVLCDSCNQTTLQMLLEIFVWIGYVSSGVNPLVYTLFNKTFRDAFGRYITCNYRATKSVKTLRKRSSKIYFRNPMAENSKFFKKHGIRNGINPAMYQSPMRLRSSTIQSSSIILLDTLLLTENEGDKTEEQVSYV

[8] = target: T6, human D3 receptor (Homo sapiens, UniProt P35462); test: Radioligand binding to dopamine receptor D3 ([3H] Spiperone, CHO membranes)
T6 construct: expressed in transfected cells; host or cells: CHO
T6 sequence (P35462 whole entry): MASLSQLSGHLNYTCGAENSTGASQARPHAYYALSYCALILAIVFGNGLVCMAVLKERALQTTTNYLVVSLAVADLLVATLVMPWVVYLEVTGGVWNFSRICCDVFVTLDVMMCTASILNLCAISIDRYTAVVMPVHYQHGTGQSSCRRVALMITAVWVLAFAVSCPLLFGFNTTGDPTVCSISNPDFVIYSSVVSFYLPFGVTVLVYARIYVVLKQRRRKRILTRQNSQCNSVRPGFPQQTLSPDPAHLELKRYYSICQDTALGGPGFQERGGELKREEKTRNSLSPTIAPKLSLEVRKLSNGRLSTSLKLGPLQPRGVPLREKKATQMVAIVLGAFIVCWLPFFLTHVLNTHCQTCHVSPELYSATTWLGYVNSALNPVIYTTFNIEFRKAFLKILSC
From the text: For this purpose sDNA of human D3 receptor is expressed in CHO cells, as it was described in [Sokoloff P, Giros B, Martres M-P, Bouthenet M-L and Schwartz J-C. Molecular cloning and characterization of novel dopamine receptor (D3) as target for neuroleptics. Nature. […] Molecular cloning and characterization of novel dopamine receptor (D3) as target for neuroleptics. Nature. […] Spiperone is used as positive control.

[9] = target: T7, human D1 receptor (Homo sapiens, UniProt P21728); test: Radioligand binding to dopamine receptor D1 ([3H] SCH-23390, CHO membranes); conditions: read-out: Dopamine receptors, % inhibition D1
T7 construct: expressed in transfected cells; host or cells: CHO
T7 sequence (P21728 whole entry): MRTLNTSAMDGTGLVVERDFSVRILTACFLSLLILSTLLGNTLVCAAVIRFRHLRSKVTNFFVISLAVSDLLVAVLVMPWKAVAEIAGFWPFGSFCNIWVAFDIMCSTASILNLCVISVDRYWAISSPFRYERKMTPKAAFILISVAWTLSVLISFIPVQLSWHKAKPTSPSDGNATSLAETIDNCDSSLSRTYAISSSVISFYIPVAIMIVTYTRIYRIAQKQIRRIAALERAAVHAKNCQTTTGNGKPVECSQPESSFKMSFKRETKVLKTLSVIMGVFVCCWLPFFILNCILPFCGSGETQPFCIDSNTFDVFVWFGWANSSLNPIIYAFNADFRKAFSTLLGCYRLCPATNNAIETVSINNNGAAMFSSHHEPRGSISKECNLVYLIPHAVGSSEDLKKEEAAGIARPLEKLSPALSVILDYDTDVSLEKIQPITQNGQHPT
From the text: For this purpose sDNA of human D1 receptor is expressed in CHO cells, as it was described in [Dearry A, Gingrich JA, Falardeau P, Fremeau RT Jr, Bates MD and Caron MG. Molecular cloning and expression of the gene for a human D1 dopamine receptor. Nature. […] Nature.

[10] = tested on: mice; test: Tail suspension test; format: in vivo; conditions: dose of 0.05 mg/kg during 4 days; fig. 16
Protocol: Example 20. Mice behavior in tail suspension test. In the test a mouse was suspended by tail with a sticky tape on the holder over horizontal surface at a height of 40 cm, and during 3 minutes the total time of complete immobility was recorded. Automated computerized detection of motion with videosystem and Any-maze programm were used. After administration of ligand 1.1.2(1-2) (CD-008-0045) in dose of 0.05 mg/kg during 4 days the time of complete immobility of mouse was lowered almost by factor of 2.5 (fig.16), that testifies the cutting of period of depressively-like condition.

[11] = tested on: mice; test: Mice Training in Morris Water Maze (Scopolamine); format: in vivo; conditions: unitary introduction of active ingredient; figures 10-13
Protocol: Example 17. Mice Training in Morris Water Maze. A round pool which was filled with water at 20-22°C was used. A round ceramic platform of 14cm height was placed in the pool. Animals's behavior was registered with automated computer videosystem in combination with software package of movement analysis Any-maze (Stoelting Co., US). Before testing mice suitable for training were selected. That was done by placing the platform 1cm above the water level and putting an animal on the platform for 20 seconds. Then the mouse was sunk into the water on the opposite side of the pool, allowed to find the platform and climbed it […] 60 seconds, where it was left for additional 20 seconds. After that the mouse was repeatedly immersed into water on the opposite side of the pool and allowed to look for platform. If it failed in finding the platform within 60 seconds the experimentator helped it to find the platform and climb it. If the mice could not find the platform itself in two consecutive attempts it was excluded from experiment. During the next two days the platform was placed 0.5 centimeter lower the water level. Every day the mice were given four attempts for finding the platform within 60 seconds. The time interval between the attempts was 20 seconds, during which the mice stayed on the platform. Every day before the first attempt mouse was placed on the platform for 20 seconds. The time needed for finding and climbing the platform was registered. The animals were sunk in water in 3 different places on the side of the pool opposite to platform. On each day of two-day testing 35-40 minutes before the beginning of training the mice were injected intraintestinally with physiological solution, Scopolamine or Scopolamine in combination with investigated compound. At least 8 animals were used in each group. On the third day the platform was removed and each animal was placed one time in the pool for a period of 60 seconds. The time each mouse spent in the area where the platform had been located during the previous days was registered. This time interval was regarded as a measure of effectiveness of training fulfilled during the previous two days. The testing was carried out during the day time in isolated laboratory using "white noise" at level of about 70 decibel above the human hearing threshold.

[12] = tested on: male mice of BALB/c line; test: Mice Behavior in the Elevated Plus Maze; format: in vivo; conditions: doses of 0,05 and 0,1 mg/kg
From the text: Example 16. […] The length of each arm of the maze was 30cm, width is 5cm, and height of the walls was 15cm. Two opposite arms were closed from both sides and end faces by transparent walls, the other two arms were lit and opened. A mouse was placed in the center of the maze and for the next five minutes the number of entries into opened and closed arms and the time spent in each type of arms was registered. […] The animals usually avoided opened arms (the preference index is between 0.2 and 0.3). Compounds with tranquilizing action increased this index up to 0.5-0.6 or even more and reduced the number of defecations without changing the overall motion activity of the mice (the total number of their entries to the arms).

[13] = target: T8, recombinant human 5-HT1A (Homo sapiens, UniProt P08908); test: Radioligand binding to serotonin receptor 5-HT1A ([3H] 8-OH-DPAT, CHO membranes); conditions: read-out: 5-HT1A % inhibition
T8 construct: expressed in transfected cells; host or cells: CHO
T8 sequence (P08908 1-422): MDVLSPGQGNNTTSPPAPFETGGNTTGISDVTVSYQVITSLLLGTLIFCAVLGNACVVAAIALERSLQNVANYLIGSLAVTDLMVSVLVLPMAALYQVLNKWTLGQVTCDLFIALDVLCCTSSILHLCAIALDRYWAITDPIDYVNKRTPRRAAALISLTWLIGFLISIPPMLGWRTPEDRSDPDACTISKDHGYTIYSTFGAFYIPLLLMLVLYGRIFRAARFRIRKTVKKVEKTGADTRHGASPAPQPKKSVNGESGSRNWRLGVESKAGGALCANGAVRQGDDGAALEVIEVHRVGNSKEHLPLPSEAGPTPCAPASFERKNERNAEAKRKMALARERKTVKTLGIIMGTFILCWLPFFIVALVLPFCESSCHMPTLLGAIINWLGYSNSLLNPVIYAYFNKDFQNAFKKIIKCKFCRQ
From the text: J Pharmacol Exp Ther. 306(1): 301-309, 2003]. […] Metergoline is used as positive control.

[14] = target: T9, recombinant human 5-HT6 receptor (Homo sapiens, UniProt P50406); test: Radioligand binding to serotonin receptor 5-HT6 ([3H] Lysergic acid diethylamide, HeLa membranes); conditions: read-out: 5-HT6 % inhibition
T9 construct: expressed in transfected cells; host or cells: HeLa
T9 sequence (P50406 whole entry): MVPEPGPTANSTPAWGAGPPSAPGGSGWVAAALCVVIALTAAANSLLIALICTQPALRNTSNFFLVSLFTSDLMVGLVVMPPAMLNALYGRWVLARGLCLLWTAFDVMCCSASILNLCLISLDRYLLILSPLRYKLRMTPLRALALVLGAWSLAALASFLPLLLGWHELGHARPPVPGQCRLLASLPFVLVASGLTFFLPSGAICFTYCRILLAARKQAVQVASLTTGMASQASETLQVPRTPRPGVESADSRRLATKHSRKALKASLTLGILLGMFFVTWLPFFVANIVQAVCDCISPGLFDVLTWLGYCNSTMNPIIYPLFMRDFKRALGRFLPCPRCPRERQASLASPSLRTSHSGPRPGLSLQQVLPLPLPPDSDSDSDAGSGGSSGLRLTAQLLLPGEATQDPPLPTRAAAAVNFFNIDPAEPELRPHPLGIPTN
From the text: Mol Pharmacol. 43:320-327, 1993]. […] Methiothepin is used as positive control.

Cc1ccc2c(c1)[C@H]1CN(C)CCC[C@@H]1N2CCc1ccc(C)nc1 (relative stereo) [1.6.2(11)]
inhibition at 10 µM [1]: 6% | % inhibition [2]: 83%

Cc1ccc2c(c1)c1c(n2/C=C\c2ccccc2)CCN(C)C1 [1.1(6)]
5-HT1B % inhibition ([3]; 10 µM ligand): 86% | enhancement of memory disturbed by Scopolamine [4]: improve memory | 5-HT2C % inhibition [5]: 101% | 5-HT2A % inhibition [6]: 100% | 5-HT2B % inhibition ([7]; 10 µM ligand): 98%

Cc1ccc2c(c1)c1c(n2CCc2ccccc2)CCN(C)C1 [1.1.2(1-2) ·2HCl]
IC50 [8]: 256 nM | Ki ([8]; Receptor D3): 868 nM | nH ([8]; Receptor D3): 0.797 | inhibition at 10 µM ([8]; read-out: Dopamine receptors, % inhibition D3): 99% | inhibition at 10 µM [9]: 89% | inhibition at 10 µM [1]: 103%

Cc1ccc2c(c1)c1c(n2CCc2ccccc2)CCN(C)C1 [1.1.2(1-2), 2,8-dimethyl-5-phenethyl-1,2,3,4-tetrahydro-1H-pyrido[4,3-b]indole]
enhancement of memory disturbed by Scopolamine [4]: improve memory | time of complete immobility, lowered by factor [10]: ~2.5 | memory disorders caused by Scopolamine (time spent in area of the platform) [11]: decreasing memory disorders

Cc1ccc2c(c1)c1c(n2CCc2ccc(C)nc2)CCN(C)C1.Cl.Cl [1.1.2(4-2)]
enhancement of memory disturbed by Scopolamine [4]: improve memory | memory disorders caused by Scopolamine (time spent in area of the platform) [11]: decreasing memory disorders | Anxiolytic (tranquilizing) action [12]: exhibit analogous action

Cc1ccc2c(c1)c1c(n2CCc2ccncc2)CCN(C)C1 [1.1.2(5-2)·2HCl]
inhibition at 10 µM ([3]; read-out: 5-HT1B % inhibition): 14% | enhancement of memory disturbed by Scopolamine [4]: improve memory | inhibition at 10 µM [6]: 88% | inhibition at 10 µM [13]: 17% | inhibition at 10 µM [14]: 91% | inhibition at 10 µM ([7]; read-out: 5-HT2B % inhibition): 80%

Cc1ccc2c(c1)c1c(n2CCc2ccncc2)CCCN(C)C1 [1.2.2(5-3)·2HCl]
memory disorders caused by Scopolamine (time spent in area of the platform) [11]: decreasing memory disorders
